Results taken from patent US11642339B2 (THERAVANCE BIOPHARMA R&D IP, LLC, priority 2017, dated 2023).
Values joined by “and” are separate entries in the source; they are usually repeats but may differ in a detail not shown here. Equal entries are not always repeated. Where two headings read alike, the source gives them in different places.

Assays:
[1] = system: subjects with diabetic or idiopathic gastroparesis; assay: DIGEST I Phase 2b: weekly GCSI-24H total score; settings: 30 mg/day;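 note: Patient-reported daily electronic-diary symptom index rating nausea/vomiting, postprandial fullness/early satiety and bloating, averaged weekly, once-daily oral capsule taken before breakfast, baseline from 1-week pretreatment period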
Source text: The total duration of study participation for each completed subject was approximately 19 weeks including: • Screening period: up to 5 weeks, including one week baseline period; • Treatment period: 12 weeks; and • Follow-up: 2 weeks.
To qualify for entry into the Baseline Period of the study, subjects had to have: a) a composite score of 2 and <5 points on nausea, bloating, feeling excessively full after meals, and not able to finish a normal-sized meal on the GCS1-2W; b) a score of ≥3 points for at least 2 of these 4 symptoms on the GCS1-2W at Screening; and c) delayed gastric emptying as determined by either a 4-hour ^99mTc GES or GEBT. If a subject failed either the GES or GEBT at Screening, then a second gastric emptying test could have been performed during the Screening Period using the GEBT in order to qualify for the study. Subjects who were eligible for further study participation completed the 2 daily PRO measures (the Gastroparesis Rating Scale [GRS] and a daily version of the GCSI, designated the Gastroparesis Cardinal Symptoms Index—24-Hour Recall [GCS1-24H] in this study) over a 7-day period to establish baselines.
After the 1-week Baseline Period, subjects were required to have a 7-day mean score of ≥2.5 and <5 points on the GCS.1-24H at Day 1 to be eligible for entry. Eligible subjects completed the Patient Assessment of Upper Gastrointestinal Quality of Life (PAG1-QOL) questionnaire to establish baseline QOL metrics at Day 1.
During the treatment period, subjects were instructed to take 1 capsule of study drug once daily approximately 30 minutes prior to eating at approximately the same time each morning and to record the time of drug ingestion in the electronic diary. Subjects also completed the GCS1-24H and GRS on a daily basis using an electronic diary. At specified times, subjects also completed the PAG1-QOL questionnaire to assess QOL metrics and the Treatment Satisfaction Questionnaire. In addition, subjects and clinicians completed the Overall Treatment Effect (OTE) and Overall Gastroparesis Severity (OGS) instruments to serve as anchor instruments for the psychometric evaluation of the GRS measure. Subjects returned to the study center for safety and efficacy assessments as detailed in the Schedule of Study Procedures.
A total score was used to assess the GCSI PRO, which comprised a mean of 3 means symptoms domain score.
Each individual domain was evaluated. […] LS Mean Differences in each subgroup are calculated based on repeated measures mixed effect model with change from baseline in weekly GCSI-24H total score as dependent variable, treatment, gastroparesis type (diabetic vs. idiopathic), GE test time (historical vs. prospective), baseline GCSI 24H total score, time, subgroup variable, interaction effect of treatment by time, baseline GCSI 24H total score by time, treatment by subgroup variable, time by subgroup variable and treatment by time by subgroup variable as fixed effect, a random effect of subject within site, using an unstructured covariance structure. For GCSI baseline subgroup analysis, baseline 24H total score is replaced with GCSI baseline categorical variable.

[2] = system: subjects with diabetic or idiopathic gastroparesis
Source text: A daily proprietary patient reported outcome (PRO) tool was used to assess GP symptoms, the Gastroparesis Rating Scale (GRS), developed according to the current FDA PRO guidance. The GRS covers the following cardinal symptom domains: (1) nausea, (2) vomiting, (3) postprandial fullness/early satiety, (4) bloating, (5) upper abdominal pain, (6) gastric reflux/burning, and (7) bowel movements. The GRS symptom domains may be also categorized or grouped into Factor 1 (fullness, early satiety, bloating, upper abdominal pain, and epigastric burning) and Factor 2 (nausea and vomiting).
GRS Factor 1 (also Summary Score 1) comprised fullness/early satiety, bloating, upper abdominal pain, and epigastric burning domains, whereas GRS Factor 2 (also Summary Score 2) comprised nausea and vomiting domains.
After the psychometric evaluation the GRS was summarized using two summary scores: Summary Score 1 combined the fullness/early satiety, bloating, upper abdominal pain, and epigastric burning domains and Summary Score 2 combined the nausea and vomiting domains.

[3] = Week 14 (off therapy), diabetic patients
[4] = Week 14 (off therapy), idiopathic patients
[5] = 5 mg/day, Week 4, diabetic gastroparesis population
[6] = 5 mg/day, Week 4, idiopathic gastroparesis population
[7] = 5 mg/day, Week 8, diabetic gastroparesis population
[8] = 5 mg/day, Week 8, idiopathic gastroparesis population
[9] = 15 mg/day, Week 4, diabetic gastroparesis population
[10] = 15 mg/day, Week 4, idiopathic gastroparesis population
[11] = 15 mg/day, Week 8, diabetic gastroparesis population
[12] = 15 mg/day, Week 8, idiopathic gastroparesis population
[13] = 15 mg/day, Week 12, diabetic gastroparesis population
[14] = 15 mg/day, Week 12, idiopathic gastroparesis population
[15] = 30 mg/day, Week 4, diabetic gastroparesis population
[16] = 30 mg/day, Week 4, idiopathic gastroparesis population
[17] = 30 mg/day, Week 8, diabetic gastroparesis population
[18] = 30 mg/day, Week 8, idiopathic gastroparesis population
[19] = 30 mg/day, Week 12, diabetic gastroparesis population
[20] = 30 mg/day, Week 12, idiopathic gastroparesis population

1-isopropyl-2-oxo-1,2-dihydroquinoline-3-carboxylic acid {(1S,3R,5R)-8-[(R)-2-hydroxy-3-(methanesulfonyl-methyl-amino)propyl]-8-azabicyclo[3.2.1]oct-3-yl}amide [Velusetrag]
LS Mean change from baseline, weekly GCSI-24H total score ([1]; Week 12, ITT): −1.5 (0.15) points
LS Mean Difference vs placebo, weekly GCSI-24H total score ([1]; Week 12, diabetic patients): 0.1 points
LS Mean change from baseline, weekly GCSI-24H total score ([1]; Week 12, diabetic patients): −1.6 points
LS Mean Difference vs placebo, weekly GCSI-24H total score ([1]; Week 12, idiopathic patients): −0.2 (0.30) points
LS Mean change from baseline, weekly GCSI-24H total score ([1]; Week 12, idiopathic patients): −1.3 (0.21) points
LS Mean Difference vs placebo, weekly GCSI-24H total score [1, 3]: −0.1 points
LS Mean change from baseline, weekly GCSI-24H total score [1, 3]: −1.7 points
LS Mean Difference vs placebo, weekly GCSI-24H total score [1, 4]: 0.0 (0.29) points
LS Mean change from baseline, weekly GCSI-24H total score [1, 4]: −1.0 (0.20) points
LS Mean Difference vs placebo, GRS Summary Score 1 (Factor 1) ([2]; 5 mg/day, Week 4, ITT): −0.4 points and −0.4 (0.16) points
LS Mean change from baseline, GRS Summary Score 1 (Factor 1) ([2]; 5 mg/day, Week 4, ITT): −1.3 (0.11) points
LS Mean Difference vs placebo, GRS Summary Score 1 (Factor 1) [2, 5]: −0.3 (0.22) points
LS Mean change from baseline, GRS Summary Score 1 (Factor 1) [2, 5]: −1.2 (0.16) points
LS Mean Difference vs placebo, GRS Summary Score 1 (Factor 1) [2, 6]: −0.5 (0.23) points
LS Mean change from baseline, GRS Summary Score 1 (Factor 1) [2, 6]: −1.3 (0.16) points
LS Mean Difference vs placebo, GRS Summary Score 1 (Factor 1) ([2]; 5 mg/day, Week 8, ITT): −0.3 (0.18) points
LS Mean change from baseline, GRS Summary Score 1 (Factor 1) ([2]; 5 mg/day, Week 8, ITT): −1.4 (0.13) points
LS Mean Difference vs placebo, GRS Summary Score 1 (Factor 1) [2, 7]: −0.2 (0.25) points
LS Mean change from baseline, GRS Summary Score 1 (Factor 1) [2, 7]: −1.4 (0.18) points
LS Mean Difference vs placebo, GRS Summary Score 1 (Factor 1) [2, 8]: −0.4 (0.26) points
LS Mean change from baseline, GRS Summary Score 1 (Factor 1) [2, 8]: −1.4 (0.18) points
LS Mean Difference vs placebo, GRS Summary Score 1 (Factor 1) ([2]; 5 mg/day, Week 12, ITT): −0.4 points and −0.4 (0.19) points
LS Mean change from baseline, GRS Summary Score 1 (Factor 1) ([2]; 5 mg/day, Week 12, ITT): −1.5 (0.13) points
LS Mean Difference vs placebo, GRS Summary Score 1 (Factor 1) ([2]; 15 mg/day, Week 4, ITT): −0.2 (0.17) points
LS Mean change from baseline, GRS Summary Score 1 (Factor 1) ([2]; 15 mg/day, Week 4, ITT): −1.1 (0.12) points
LS Mean Difference vs placebo, GRS Summary Score 1 (Factor 1) [2, 9]: −0.2 points
LS Mean change from baseline, GRS Summary Score 1 (Factor 1) [2, 9]: −1.2 points
LS Mean Difference vs placebo, GRS Summary Score 1 (Factor 1) [2, 10]: −0.4 (0.25) points
LS Mean change from baseline, GRS Summary Score 1 (Factor 1) [2, 10]: −1.2 (0.18) points
LS Mean Difference vs placebo, GRS Summary Score 1 (Factor 1) ([2]; 15 mg/day, Week 8, ITT): −0.1 (0.19) points
LS Mean change from baseline, GRS Summary Score 1 (Factor 1) ([2]; 15 mg/day, Week 8, ITT): −1.2 (0.14) points
LS Mean Difference vs placebo, GRS Summary Score 1 (Factor 1) [2, 11]: 0.0 points
LS Mean change from baseline, GRS Summary Score 1 (Factor 1) [2, 11]: −1.2 points
LS Mean Difference vs placebo, GRS Summary Score 1 (Factor 1) [2, 12]: −0.4 (0.28) points
LS Mean change from baseline, GRS Summary Score 1 (Factor 1) [2, 12]: −1.3 (0.20) points
LS Mean Difference vs placebo, GRS Summary Score 1 (Factor 1) ([2]; 15 mg/day, Week 12, ITT): −0.2 (0.2) points
LS Mean change from baseline, GRS Summary Score 1 (Factor 1) ([2]; 15 mg/day, Week 12, ITT): −1.3 (0.15) points
LS Mean Difference vs placebo, GRS Summary Score 1 (Factor 1) [2, 13]: 0.0 points
LS Mean change from baseline, GRS Summary Score 1 (Factor 1) [2, 13]: −1.3 points
LS Mean Difference vs placebo, GRS Summary Score 1 (Factor 1) [2, 14]: −0.4 (0.29) points
LS Mean change from baseline, GRS Summary Score 1 (Factor 1) [2, 14]: −1.4 (0.22) points
LS Mean Difference vs placebo, GRS Summary Score 1 (Factor 1) ([2]; 30 mg/day, Week 4, ITT): 0.0 (0.17) points
LS Mean change from baseline, GRS Summary Score 1 (Factor 1) ([2]; 30 mg/day, Week 4, ITT): −0.8 (0.12) points
LS Mean Difference vs placebo, GRS Summary Score 1 (Factor 1) [2, 15]: 0.1 points
LS Mean change from baseline, GRS Summary Score 1 (Factor 1) [2, 15]: −0.8 points
LS Mean Difference vs placebo, GRS Summary Score 1 (Factor 1) [2, 16]: −0.0 (0.23) points
LS Mean change from baseline, GRS Summary Score 1 (Factor 1) [2, 16]: −0.8 (0.16) points
LS Mean Difference vs placebo, GRS Summary Score 1 (Factor 1) ([2]; 30 mg/day, Week 8, ITT): −0.1 (0.18) points
LS Mean change from baseline, GRS Summary Score 1 (Factor 1) ([2]; 30 mg/day, Week 8, ITT): −1.1 (0.13) points
LS Mean Difference vs placebo, GRS Summary Score 1 (Factor 1) [2, 17]: 0.0 points
LS Mean change from baseline, GRS Summary Score 1 (Factor 1) [2, 17]: −1.2 points
LS Mean Difference vs placebo, GRS Summary Score 1 (Factor 1) [2, 18]: −0.2 (0.26) points
LS Mean change from baseline, GRS Summary Score 1 (Factor 1) [2, 18]: −1.1 (0.18) points
LS Mean Difference vs placebo, GRS Summary Score 1 (Factor 1) ([2]; 30 mg/day, Week 12, ITT): −0.1 (0.2) points
LS Mean change from baseline, GRS Summary Score 1 (Factor 1) ([2]; 30 mg/day, Week 12, ITT): −1.2 (0.14) points
LS Mean Difference vs placebo, GRS Summary Score 1 (Factor 1) [2, 19]: −0.1 points
LS Mean change from baseline, GRS Summary Score 1 (Factor 1) [2, 19]: −1.3 points
LS Mean Difference vs placebo, GRS Summary Score 1 (Factor 1) [2, 20]: −0.1 (0.28) points
LS Mean change from baseline, GRS Summary Score 1 (Factor 1) [2, 20]: −1.1 (0.19) points
